This passage reports GI50 and TGI results from PubChem BioAssay (NCI).

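Five concentrations, 48 hours, 96-well plates. GI50 marks 50% less growth. TGI: concentration producing complete growth inhibition.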

Test in all cases: NCI-60 cell line screen, 48 h
Experiment [1] concerns A549 NSCLC.
Experiment [2] relates to SN12C renal.
Experiment [3] relates to SK-MEL-5 melanoma.
In experiment [4] the test system is TK-10 renal.
Experiment [5] deals with HCC-2998 colon.
Experiment [6] relates to HOP-62 NSCLC.
Experiment [7] has as its system HT29 colon.
Experiment [8] concerns UO-31 renal.
Experiment [9] concerns HL-60(TB) leukemia.

On to `CCCCCCCCCCC(O)C1CCC(C(O)CCC(O)C2CCC(CCCCCCC[C@H](O)CC3=C[C@@H](C)OC3=O)O2)O1` (some centres not stated), for which the GI50 in experiment [1] is 8.66 µM; in [3], 5.97 µM. The TGI is over 100 µM in experiment [1]; over 100 µM in experiment [2]; over 64.3 µM in [3]; over 100 µM in experiment [4]; over 100 µM in [5]; over 100 µM in [6]. In addition, the TGI is over 100 µM in experiment [7], over 86.1 µM in [8] and 13.4 µM in [9].

As to `COc1ccc2cc3[n+](cc2c1OC)CCc1cc(O)c(O)cc1-3`, the TGI in experiment [1], in [2], in [3], in experiment [4], in experiment [6] and in experiment [7] was over 100 µM each time. In addition, the TGI in [8] and in [9] was over 100 µM throughout.

For the compound `CN(C)CC/C(=N\Nc1ccccc1)c1ccccc1`, the TGI in experiment [1] was over 100 µM; in [3], 35.6 µM; in experiment [4], 41.2 µM; in experiment [5], 58.9 µM; in experiment [6], 31 µM; in [7], 10 µM. In experiment [8], the TGI was found to be 22.8 µM.

With `O=c1[nH]c2c3ccccc3ccc2c2cc3c(cc12)OCO3`, the TGI in [1], in experiment [2], in experiment [3], in [4], in experiment [5] and in experiment [6] was over 100 µM throughout. Further, the TGI in experiment [7] and in experiment [8] was over 100 µM each time.

With `CC(=O)N/C(=C\c1cccc([N+](=O)[O-])c1)c1nc2c3c(ccc2[nH]1)C(=O)c1ccccc1C3=O`, the TGI in [1], in experiment [2], in [3], in [4], in [5] and in experiment [6] was over 100 µM in each case. Moreover, the results for the TGI in experiment [7], in experiment [8] and in experiment [9] were over 100 µM, over 69.3 µM and 59.8 µM, respectively.

Take `Cc1cc(C)nc(NS(=O)(=O)c2ccc(Nc3c4ccc(Cl)cc4nc4c(C(=O)Nc5ccc(S(=O)(=O)N=C(N)N)cc5)cccc34)cc2)n1`: the TGI in experiment [2], in [4], in experiment [5], in [6], in [7] and in experiment [8] was over 100 µM each time.

As to `CCN(CC)CCNC(=O)c1nn(C)c(=S)[nH]c1=S`, the TGI in [1], in [2], in experiment [3], in [4], in experiment [5] and in experiment [6] was over 100 µM each time. For the same compound, the TGI in experiment [7], in experiment [8] and in [9] was over 100 µM each time.

Turning to `CC/C(=C(/CC)c1ccc(O)cc1)c1ccc([O-])cc1.CC/C(=C(/CC)c1ccc(O)cc1)c1ccc([O-])cc1.O=C([CH-]C(=O)c1ccccc1)c1ccccc1.O=C([CH-]C(=O)c1ccccc1)c1ccccc1.[Ti+4]`, the GI50 was 7.99 µM in experiment [1]; 14 µM in experiment [2]; 30.2 µM in experiment [4]; 12.2 µM in [5]; 14.7 µM in experiment [6]; 18.1 µM in experiment [7]. The GI50 in [8] is 21.8 µM. Besides, the TGI in [1] was 32.3 µM; in experiment [2], 26.9 µM; in experiment [4], 76.9 µM; in [5], 24.6 µM; in experiment [6] it was 28.3 µM; in experiment [7] it was 32 µM. The compound also returned a TGI in [8] of 38.6 µM.

For `CCn1c(O)c(C=N)c(=O)n(CC)c1=O`, the TGI in [1], in experiment [2], in experiment [3], in experiment [4], in [5] and in experiment [6] was over 100 µM in each case. Moreover, the TGI in experiment [7], in experiment [8] and in experiment [9] was over 100 µM throughout.

Take `Cc1ccc(NC(=O)CCC/C(CC(=O)c2ccc(Br)cc2)=N/NC(=O)CC#N)cc1`: the TGI in [1], in experiment [2], in experiment [3], in [4], in [5] and in experiment [6] was over 100 µM throughout. Besides, the TGI in experiment [7], in experiment [8] and in [9] was over 100 µM each time.

As for `CCCCc1ccc(-n2c3nc(=O)n(C)c(=O)c-3nc3ccccc32)cc1`, the TGI in experiment [1] was 22 µM; in experiment [2], 20.9 µM; in experiment [3], 3.01 µM; in experiment [4], 27.5 µM; in experiment [5], 16.3 µM; in experiment [6], 32.6 µM. Also, the TGI in [7] came to 11.8 µM; in experiment [8], 25.1 µM; in experiment [9] it was 32.5 µM.

On to `O=C1c2ccccc2C2(O)NC(=S)N(c3ccccc3)C12O` (configuration not stated), for which the TGI in [1], in [4], in experiment [5], in experiment [7], in [8] and in [9] was over 100 µM each time.

Turning to `COC(=O)C(=O)C(C#N)c1ccc(CC#N)cc1` (configuration not stated), the TGI in [1], in experiment [2], in experiment [4], in experiment [7], in [8] and in experiment [9] was over 100 µM throughout.

Take `Cc1nc2cc(N)c(F)cc2[nH]1`: the TGI in experiment [1], in [2], in [3], in [4], in experiment [6] and in [7] was over 100 µM throughout. Moreover, the TGI in experiment [8] and in [9] was over 100 µM in each case.

Regarding `C[C@]12CC[C@H](OCCC#N)CC1=CC[C@@H]1C2CC[C@]2(C)/C(=N/OCCC#N)CCC12` (some centres not stated), the TGI in experiment [1] is over 100 µM; in experiment [2], over 100 µM; in [3], over 100 µM; in experiment [4] it was over 88.6 µM; in experiment [5], over 100 µM; in experiment [6], over 100 µM. Further, the TGI in experiment [8] and in experiment [9] was over 100 µM throughout.
